Results taken from patent US9309242B2, “Substituted pyrido[2,3-b]pyrazines as FGFR kinase inhibitors” (priority 2011, dated 2016).
Counter-ions that a name gives are not always drawn. Like-named read-outs stand apart in the source and are kept apart here.

How the values were obtained:
[1] = biological target: T1, Ba/F3-KDR-transfected cells (Homo sapiens, UniProt P35968); assay: Ba/F3-KDR (minus IL3) cellular proliferation assay, Alamar Blue; format: cell-based
T1 construct: BAF3-KDR (MIN IL3) pIC50; other: minus IL3
T1 sequence (P35968 whole entry, change not shown): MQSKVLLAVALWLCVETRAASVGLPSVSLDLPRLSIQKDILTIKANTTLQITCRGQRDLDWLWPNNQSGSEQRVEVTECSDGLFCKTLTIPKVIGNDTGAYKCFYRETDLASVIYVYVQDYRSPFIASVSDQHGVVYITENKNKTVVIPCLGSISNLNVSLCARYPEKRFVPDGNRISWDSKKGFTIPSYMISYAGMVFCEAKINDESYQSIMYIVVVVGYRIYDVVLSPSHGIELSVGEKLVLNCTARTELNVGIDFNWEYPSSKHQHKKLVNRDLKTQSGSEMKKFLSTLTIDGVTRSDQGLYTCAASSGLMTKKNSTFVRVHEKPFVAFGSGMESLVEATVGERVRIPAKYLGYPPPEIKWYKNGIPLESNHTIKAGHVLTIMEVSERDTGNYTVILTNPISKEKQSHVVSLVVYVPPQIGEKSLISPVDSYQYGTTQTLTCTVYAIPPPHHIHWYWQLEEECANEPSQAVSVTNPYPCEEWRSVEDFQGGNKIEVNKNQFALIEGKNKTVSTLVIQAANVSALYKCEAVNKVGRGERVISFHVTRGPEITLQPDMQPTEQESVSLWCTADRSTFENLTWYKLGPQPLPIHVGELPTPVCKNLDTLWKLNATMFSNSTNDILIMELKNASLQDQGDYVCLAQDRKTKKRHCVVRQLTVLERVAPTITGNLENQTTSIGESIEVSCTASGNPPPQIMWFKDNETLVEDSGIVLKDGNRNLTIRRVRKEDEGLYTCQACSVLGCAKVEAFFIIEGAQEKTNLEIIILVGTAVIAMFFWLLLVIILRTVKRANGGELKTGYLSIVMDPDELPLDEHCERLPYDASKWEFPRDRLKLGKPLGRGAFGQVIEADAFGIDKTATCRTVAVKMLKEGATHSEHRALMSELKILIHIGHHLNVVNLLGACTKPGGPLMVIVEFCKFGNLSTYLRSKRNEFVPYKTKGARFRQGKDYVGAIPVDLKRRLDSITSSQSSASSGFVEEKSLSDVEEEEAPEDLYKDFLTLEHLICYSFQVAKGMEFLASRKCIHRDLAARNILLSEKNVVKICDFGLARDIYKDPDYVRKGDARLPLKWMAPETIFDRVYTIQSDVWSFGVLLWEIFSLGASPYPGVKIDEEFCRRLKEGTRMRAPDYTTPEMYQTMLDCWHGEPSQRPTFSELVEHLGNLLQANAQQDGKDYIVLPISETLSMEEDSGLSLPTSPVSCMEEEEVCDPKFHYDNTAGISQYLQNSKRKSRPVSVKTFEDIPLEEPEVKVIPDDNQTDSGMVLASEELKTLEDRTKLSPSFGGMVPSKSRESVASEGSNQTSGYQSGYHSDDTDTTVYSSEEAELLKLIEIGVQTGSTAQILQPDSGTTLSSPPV
Method in brief: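 20000 cells/well, RPMI-1640 + 10% FBS + 2 mM L-Gln; compound 24 h, 37° C/5% CO2; Alamar Blue 4 h; RFU ex540/em590.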

[2] = biological target: KDR (h) (Homo sapiens, UniProt P35968); assay: KDR (VEGFR2) (enzymatic assay), TR-FRET; format: biochemical; conditions: read-out: VEGFR 2 (KDR) pIC50 (converted)
Sequence of KDR (h) (P35968 20-1356): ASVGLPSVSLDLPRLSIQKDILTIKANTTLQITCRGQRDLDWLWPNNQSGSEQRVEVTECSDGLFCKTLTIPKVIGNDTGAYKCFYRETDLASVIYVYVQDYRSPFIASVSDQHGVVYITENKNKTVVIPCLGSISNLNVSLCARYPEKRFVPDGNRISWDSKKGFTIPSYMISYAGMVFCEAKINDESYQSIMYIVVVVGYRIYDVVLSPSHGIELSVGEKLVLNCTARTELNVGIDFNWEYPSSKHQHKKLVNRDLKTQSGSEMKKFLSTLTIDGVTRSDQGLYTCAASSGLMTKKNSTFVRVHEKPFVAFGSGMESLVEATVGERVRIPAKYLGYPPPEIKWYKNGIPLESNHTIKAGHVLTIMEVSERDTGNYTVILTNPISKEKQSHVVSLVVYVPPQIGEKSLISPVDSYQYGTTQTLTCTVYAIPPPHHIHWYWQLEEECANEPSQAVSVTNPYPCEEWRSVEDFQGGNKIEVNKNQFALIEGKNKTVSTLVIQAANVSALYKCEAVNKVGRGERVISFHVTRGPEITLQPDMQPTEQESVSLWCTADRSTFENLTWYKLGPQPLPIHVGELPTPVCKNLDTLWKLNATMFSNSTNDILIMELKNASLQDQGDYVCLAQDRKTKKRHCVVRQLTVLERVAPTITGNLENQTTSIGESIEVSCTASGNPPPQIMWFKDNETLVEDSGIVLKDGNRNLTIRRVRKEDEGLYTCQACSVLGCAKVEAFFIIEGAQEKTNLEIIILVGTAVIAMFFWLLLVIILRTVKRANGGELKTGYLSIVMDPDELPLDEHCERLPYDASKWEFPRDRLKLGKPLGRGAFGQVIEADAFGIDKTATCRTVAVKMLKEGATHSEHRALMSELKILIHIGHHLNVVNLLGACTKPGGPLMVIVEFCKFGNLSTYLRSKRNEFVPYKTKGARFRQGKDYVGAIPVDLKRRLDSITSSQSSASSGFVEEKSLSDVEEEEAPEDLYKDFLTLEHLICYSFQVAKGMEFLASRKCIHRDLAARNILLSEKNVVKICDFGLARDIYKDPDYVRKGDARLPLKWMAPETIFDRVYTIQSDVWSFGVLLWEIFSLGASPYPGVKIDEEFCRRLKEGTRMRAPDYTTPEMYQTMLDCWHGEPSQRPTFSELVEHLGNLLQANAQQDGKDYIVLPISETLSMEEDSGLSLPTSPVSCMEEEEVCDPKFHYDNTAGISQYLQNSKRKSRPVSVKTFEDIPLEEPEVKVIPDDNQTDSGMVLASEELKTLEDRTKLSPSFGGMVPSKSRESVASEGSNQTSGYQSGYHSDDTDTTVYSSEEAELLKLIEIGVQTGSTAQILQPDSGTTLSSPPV
Method in brief: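 Read-out is TR-FRET (ex 340 nm, em 620 and 655 nm) in RFU, after an EDTA stop carrying Eu-labelled anti-phosphotyrosine and SA-XL-665 (60 min, RT). The preceding kinase reaction ran 120 min at RT with 150 ng/ml enzyme, 500 nM Btn-Flt3 and 3 μM ATP.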

[3] = average values if tested multiple times

SMILES	BAF3-KDR (MIN IL3) pIC50 [1]	IC50 [2, 3] [nM]	melting point [°C]	IC50 [2] [nM]
COc1cc(OC)cc(N(Cc2ncc[nH]2)c2ccc3ncc(-c4cnn(C)c4)nc3n2)c1 (racemic) [24-DL-tartrate salt]	6.30	11.7	–	–
COc1cc(OC)cc(N(CC(O)C(F)(F)F)c2ccc3ncc(-c4cnn(C)c4)nc3n2)c1 (single isomer, unassigned) [Compound 33]	5.26	75.9	208	–
COCC(O)CN(c1ccc2ncc(-c3cnn(C)c3)nc2n1)c1cc(OC)cc(OC)c1F (single isomer, unassigned) [Compound 58]	5.97	34.7	94 to 95	–
COc1cc(OC)c(F)c(N(CC(O)COC(C)C)c2ccc3ncc(-c4cnn(C)c4)nc3n2)c1 (single isomer, unassigned) [Compound 75]	6.16	23.4	–	–
COc1cc(OC)c(F)c(N(c2ccc3ncc(-c4cnn(C)c4)nc3n2)C(CO)COC(C)C)c1 (single isomer, unassigned) [Compound 76]	<5	> 1000	137 to 138	–
COc1cc(/N=c2\ccc3ncc(-c4cnn(C)c4)nc3n2CC(O)COC(C)C)c(F)c(OC)c1 (single isomer, unassigned) [Compound 77]	5.33	28.8	96 to 97	–
COc1cc(OC)c(Cl)c(N(CC2CCC(=O)N2)c2ccc3ncc(-c4cnn(C)c4)nc3n2)c1Cl (single isomer, unassigned) [Compound 88]	5.14	102	–	–
COc1cc(/N=c2\ccc3ncc(-c4cnn(C)c4)nc3n2CC2COC(=O)N2)c(F)c(OC)c1 (single isomer, unassigned) [Compound 112]	5.65	17	–	–
COc1cc(OC)c(F)c(N(Cc2ncc[nH]2)c2ccc3ncc(-c4cnn(C)c4)nc3n2)c1 [Compound 23]	6.74	7.08	–	–
COc1cc(OC)cc(N(Cc2ncc[nH]2)c2ccc3ncc(-c4cnn(C)c4)nc3n2)c1 [Compound 24]	6.22	10.7	–	–
COc1cc(OC)c(F)c(N(CCO)c2ccc3ncc(-c4cnn(C)c4)nc3n2)c1 [Compound 40]	6.00	17.4	–	–
COc1cc(OC)c(F)c(N(Cc2c[nH]cn2)c2ccc3ncc(-c4cnn(C)c4)nc3n2)c1 [Compound 41]	6.70	5.37	–	–
COc1cc(OC)c(Cl)c(N(Cc2ncc[nH]2)c2ccc3ncc(-c4cnn(C)c4)nc3n2)c1 [Compound 42]	6.89	8.91	–	–
COc1cc(OC)c(F)c(N(CC2CCC(=O)N2)c2ccc3ncc(-c4cnn(C)c4)nc3n2)c1 (stereo not shown) [Compound 46]	5.35	41.7	–	–
COc1cc(OC)c(F)c(N(CCCN2CCCC2=O)c2ccc3ncc(-c4cnn(C)c4)nc3n2)c1F [Compound 56]	6.60	7.76	–	–
COc1cc(OC)c(F)c(N(CC(O)COC(C)C)c2ccc3ncc(-c4cnn(C)c4)nc3n2)c1F (stereo not shown) [Compound 63]	6.58	15.8	–	–
COc1cc(OC)c(F)c(/N=c2\ccc3ncc(-c4cnn(C)c4)nc3n2CC(O)COC(C)C)c1F (stereo not shown) [Compound 64]	6.31	7.41	–	–
COc1ccc(Cl)c(N(Cc2ncc[nH]2)c2ccc3ncc(-c4cnn(C)c4)nc3n2)c1Cl [Compound 65]	5.06	191	–	–
COc1cc(OC)c(F)c(N(CCN)c2ccc3ncc(-c4cnn(C)c4)nc3n2)c1F [Compound 67]	6.59	14.5	–	–
COc1cc(OC)c(F)c(/N=c2\ccc3ncc(-c4cnn(C)c4)nc3n2CCN)c1F [Compound 68]	6.07	15.8	–	–
CNCCN(c1ccc2ncc(-c3cnn(C)c3)nc2n1)c1c(F)ccc(OC)c1Cl [Compound 69]	5.13	417	–	–
COc1ccc(F)c(N(Cc2ncc[nH]2)c2ccc3ncc(-c4cnn(C)c4)nc3n2)c1Cl [Compound 73]	5.55	63.1	–	–
CNCCN(c1ccc2ncc(-c3cnn(C)c3)nc2n1)c1c(Cl)c(OC)cc(OC)c1Cl [Compound 81]	5.36	195	–	–
CNCCN(c1ccc2ncc(-c3cnn(C)c3)nc2n1)c1c(Cl)ccc(OC)c1Cl [Compound 83]	<5	> 1000	–	–
CNCCn1/c(=N/c2c(Cl)ccc(OC)c2Cl)ccc2ncc(-c3cnn(C)c3)nc21 [Compound 84]	<5	> 1000	–	–
COc1cc(OC)c(F)c(N(Cc2nc[nH]n2)c2ccc3ncc(-c4cnn(C)c4)nc3n2)c1F [Compound 85]	6.43	6.76	–	–

SMILES	BAF3-KDR (MIN IL3) pIC50 [1]	IC50 [2, 3] [nM]	melting point [°C]	IC50 [2] [nM]
COc1cc(OC)c(F)c(N(Cc2nc[nH]n2)c2ccc3ncc(-c4cnn(C)c4)nc3n2)c1 [Compound 86]	6.24	7.59	–	–
COc1ccc(Cl)c(/N=c2\ccc3ncc(-c4cnn(C)c4)nc3n2CC2CCC(=O)N2)c1Cl (stereo not shown) [Compound 92]	<5	309	–	–
COc1cc(OC)c(Cl)c(N(Cc2ncc[nH]2)c2ccc3ncc(-c4cnn(C)c4)nc3n2)c1Cl [Compound 98]	6.19	16.6	–	–
COc1cc(OC)c(F)c(N(Cc2ncc[nH]2)c2ccc3ncc(-c4cnn(Cc5ncc[nH]5)c4)nc3n2)c1 [Compound 100]	5.41	8.13	–	–
COc1cc(OC)c(F)c(N(Cc2nc3c([nH]2)CCNC3)c2ccc3ncc(-c4cnn(C)c4)nc3n2)c1 [Compound 104]	5.10	26.3	–	–
CNCCN(c1ccc2ncc(-c3cn[nH]c3)nc2n1)c1c(F)c(OC)cc(OC)c1F [Compound 106]	5.59	25.1	–	–
COc1cc(OC)c(F)c(N(Cc2nc[nH]c2C)c2ccc3ncc(-c4cnn(C)c4)nc3n2)c1 [Compound 109]	~6.01	20	–	–
COc1cc(OC)c(F)c(N(Cc2ccnn2C)c2ccc3ncc(-c4cnn(C)c4)nc3n2)c1 [Compound 113]	5.33	51.3	–	–
COc1cc(/N=c2\ccc3ncc(-c4cnn(C)c4)nc3n2Cc2ccnn2C)c(F)c(OC)c1 [Compound 114]	~7.05	4.9	–	–
COc1cc(/N=c2\ccc3ncc(-c4cnn(C)c4)nc3n2Cc2cc[nH]n2)c(F)c(OC)c1 [Compound 115]	6.58	5.89	–	–
COc1cc(OC)c(F)c(N(Cc2cc[nH]n2)c2ccc3ncc(-c4cnn(C)c4)nc3n2)c1 [Compound 118]	6.60	6.46	–	–
COc1cc(/N=c2\ccc3ncc(-c4cnn(C)c4)nc3n2CCCN2CCCC2=O)c(F)c(OC)c1 [Compound 119]	~6.52	–	–	6.17
COc1cc(OC)c(F)c(N(CCCN2CCCC2=O)c2ccc3ncc(-c4cnn(C)c4)nc3n2)c1 [Compound 120]	6.10	–	–	19.1
CNCCN(c1ccc2ncc(-c3cnn(C)c3)nc2n1)c1c(F)c(O)cc(OC)c1F [Compound 122]	<5	–	–	50.1
COc1cc(/N=c2\ccc3ncc(-c4cnn(C)c4)nc3n2CC2COC(=O)N2)c(F)c(OC)c1 (stereo not shown) [Compound 123]	5.53	–	–	21.9
COc1cc(OC)c(F)c(N(CC2COC(=O)N2)c2ccc3ncc(-c4cnn(C)c4)nc3n2)c1 (stereo not shown) [Compound 124]	5.49	–	–	60.3
COc1cc(OC)c(F)c(N(Cc2cn[nH]c2)c2ccc3ncc(-c4cnn(C)c4)nc3n2)c1 [Compound 125]	6.21	–	–	8.71
COc1cc(OC)c(F)c(N(Cc2ccn(C)n2)c2ccc3ncc(-c4cnn(C)c4)nc3n2)c1 [Compound 128]	6.34	–	–	7.94
COc1cc(OC)c(F)c(N(Cc2nccn2C)c2ccc3ncc(-c4cnn(C)c4)nc3n2)c1 [Compound 131]	5.50	–	–	19.1
COc1cc(OC)c(F)c(N(Cc2nncn2C)c2ccc3ncc(-c4cnn(C)c4)nc3n2)c1 [Compound 132]	5.38	–	–	42.7
COc1cc(OC)cc(N(CCCN2CCCC2=O)c2ccc3ncc(-c4cnn(C)c4)nc3n2)c1 [Compound 134]	5.20	–	–	35.5
COc1cc(OC)c(F)c(N(Cc2nc(C)c[nH]2)c2ccc3ncc(-c4cnn(C)c4)nc3n2)c1 [Compound 135]	6.64	–	–	8.71
COc1cc(OC)c(F)c(N(Cc2c[nH]c(C)n2)c2ccc3ncc(-c4cnn(C)c4)nc3n2)c1 [Compound 137]	6.19	–	–	11.2
COc1cc(OC)c(F)c(N(CC2CCC(=O)N2)c2ccc3ncc(-c4cnn(C)c4)nc3n2)c1F (stereo not shown) [Compound 192]	6.11	13.8	–	–
COc1cc(OC)c(F)c(/N=c2\ccc3ncc(-c4cnn(C)c4)nc3n2CC2CCC(=O)N2)c1F (stereo not shown) [Compound 193]	6.28	7.24	–	–
